Assay results: US12383534B2, “Methods for treating cancer” (REGENTS OF THE UNIVERSITY OF MINNESOTA, priority 2021, dated 2025)

How the values were obtained:
p300 and CBP = conditions: in vitro and in vivo; cited from earlier work
[1] = test system: Kitra-SRS cells (CIC-DUX4 sarcoma cell line); test: Cell viability (ATP) assay in Kitra-SRS cells; assay type: cell-based, human; conditions: day 2
Description: Basal media were purchased from HyClone, fetal bovine serum (FBS) was from PeakSerum (Ps-FB3, lot 293Q16), and Glutamax (Glu) and Penicillin/Streptomycin (P/S) were from GIBCO. NCC-CDS-X1 (CIC-DUX4 sarcoma cell line, a generous gift from Tadashi Kondo) cell line was cultured in RPMI with 10% FBS, Glu and P/S, Kitra-SRS (CIC-DUX4 sarcoma cell line, a generous gift from Hidetatsu Otani), 3T3, 293T and C2C12 cell lines were cultured in DMEM/10% FBS/Glu/P/S. The immortalized human myoblast LHCN-M2 cell line was cultured in proliferation medium: F10 supplemented with 20% FBS, 2-mercaptoethanol 1× (GIBCO), 10^−9 M dexamethasone (Sigma), 10 ng/mL bFGF (Peprotech), and Glu/P/S. All cells were cultured at 37° C. in a 5% CO2 atmosphere.
Cell lines were plated in a 96 well dish (1×10^5 cells/well), and the following day were treated with iP300w or its stereoisomers. ATP assays were performed using CellTiter-Glo® Luminescent Cell Viability Assay (Promega) according to the manufacturer's instructions. Luminescence was analyzed on POLARstar Optima Microplate Reader (BMG Labtech, Offenburg, Germany).
To evaluate the consequences of iP300w treatment of CDS cells, its effects on both monolayer cultures as well as 3D spheres was determined in both CDS cell lines. […] Using the cell viability assay, it was determined that 0.003 μM was the lowest effective concentration on day 2 in both lines (FIG. 2B).

[2] = test system: global H3K18 and H3K27 acetylation (p300/CBP); test: Western blot for acetylated H3K18 and H3K27 in cell lines overexpressing CIC-DUX4; assay type: cell-based, mouse and human; conditions: all analyzed CIC-DUX4 overexpressing cell lines, 18 hours
Description: (§1) For western blot analyses, cells were lysed with RIPA buffer supplemented with protease inhibitor cocktail (Complete, Roche), and proteins were separated on 10% SDS-PAGE gels, then transferred to PVDF membranes. Antibodies were diluted in 5% skim milk in TBST and incubated overnight at 4° C. or 1 hour at RT. An appropriate secondary HRP conjugated antibody was incubated for 1 hour at RT. Membranes were then washed with TBST, and signal was visualized using Pierce ECL western blotting substrate (Thermo Scientific). For immunofluorescence, cells cultured in 96 well plates were fixed in 4% PFA for 10 min., washed twice with PBS, permeabilized with 0.3% Triton X for 30 min, and blocked with 3% BSA for 1 hour at R/T. Primary antibodies were diluted in 3% BSA and incubated o/n at 4° C. An appropriate conjugated secondary antibody was applied for 60 min at RT. Nuclei were visualized using DAPI (1:5000, Sigma). […]

[3] = test system: CIC-DUX4 target genes like ETV4 and CCNE1 in ES cell lines (AF573, TC71, A673); test: RT-qPCR for CIC-DUX4 target genes in Ewing sarcoma cell lines; assay type: cell-based; conditions: 0.03 μM, 18 hours
Description: RNA was extracted using an RNA extraction kit (Zymo) and cDNA was made using 0.5 μg total RNA with oligo-dT primer and Verso cDNA Synthesis Kit (Thermo Scientific) following the manufacturer's instructions. qPCRs were performed by using Premix Ex Taq (Probe qPCR, Takara) or SYBR-green. Gene expression levels were normalized to that of GAPDH and analyzed with 7500 System Software using the ACT method (Applied Biosystems). RNA-seq library preparation was done with 500 ng total RNA from NCC-CDS-X1 cells treated for 4 or 24 hours with iP300w (0.3 μM) using the Swift Rapid RNA Library Kit (SwiftBioscience). 36 base paired-end sequencing was performed on an Illumina NextSeq instrument at the University of Minnesota Genomics Center.
To determine whether iP300w was particularly active against CDS cells, vis-à-vis other related cancer cell lines, viability of 3 different Ewing sarcoma (ES) cell lines and several different immortalized cell lines treated with iP300w were compared. […] Furthermore, gene expression analyses confirmed the specificity of iP300w to CDS.

Kitra-SRS cells = test: Immunofluorescence for Ki-67 in Kitra-SRS cells; assay type: cell-based, human; conditions: 24 hours, 0.3 μM
Description: as §1

[4] = test system: NCC-CDS-X1 and Kitra-SRS cell cultures; test: Morphology of monolayer CDS cell cultures; assay type: cell-based, human; conditions: both CDS cell lines
Description: To evaluate the consequences of iP300w treatment of CDS cells, its effects on both monolayer cultures as well as 3D spheres was determined in both CDS cell lines. Inhibition of proliferation was morphologically apparent as early as 24 hours after iP300w treatment and progressed with time (FIG. 2A). Using the cell viability assay, it was determined that 0.003 μM was the lowest effective concentration on day 2 in both lines (FIG. 2B).

SMILES: CNC(=O)Cn1cc(-c2ccc3c(c2)[C@H](F)C[C@]32NC(=O)N(CC(=O)N(Cc3ccc(F)cc3)[C@@H](C)C(F)(F)F)C2=O)cn1 (single isomer, unassigned) [iP300w]
- inhibition of acetylation by p300 and CBP (p300 and CBP): inhibit acetylation by p300 and CBP both in vitro and in vivo
- lowest effective concentration in cell viability assay [1]: 0.003 µM
- effect on CIC-DUX4-induced global H3K18 and H3K27 acetylation [2]: abolished
- effect on basal expression of CIC-DUX4 target genes and cell cycle-related genes [3]: did not affect the basal expression
- Ki-67 positive staining (Kitra-SRS cells): almost complete absence of Ki-67 positive staining
- time at which inhibition of proliferation is morphologically apparent [4]: 24 hours
